Assays:
NPC1 protein = experiment: Effect on NPC1 protein levels, Western blot densitometry in I1061T fibroblasts; format: cell-based; conditions: 0.3, 1 and 3 μM, 24 h, 48 h, 72 h, versus vehicle (FIGS. 1B-1D)
Protocol: (§1) Healthy and I1061T fibroblasts (Coriell Institute Camden USA, cod. GM05659 (Healthy) and GM18453 (11061T)) were grown in air containing 5% CO2 in Dulbecco's Modified Eagle Medium (DMEM) medium, containing 10% v/v fetal calf serum, 2 mM L-glutamine, 0.1 mg/mL gentamicin, and 100 U/mL penicillin. Cells were passaged every 3 days.
1.5 mg of each of the compounds were weighed, dissolved in the proper solvent to reach a 3 mM concentration, kept at 4° C., and used within 15 days. The dilutions for the treatment were carried out in order to administer a 1:1000 volume. Specifically, 2 μL in 2 mL medium was administered. Ctr was made with DMSO.
Cells were washed twice in phosphate buffer saline (PBS), harvested with 1% v/v trypsin, and pelleted by centrifugation. Pellets were re-suspended in PBS containing 0.1 M sucrose, 0.05 M KCl, 0.04 M KH2PO4, 30 mM EDTA, pH 7.4, and sonicated. The protein concentration was determined by the Lowry method.
Samples were solubilized in 0.25 mM Tris-HCl, (pH 6.8) containing 20% (w/v) SDS, protease inhibitor cocktail (Merck #PIC0002), then boiled for 2 minutes. […]

I1061T fibroblasts = experiment: LysoTracker cytofluorimetric analysis of lysosomal size; format: cell-based; conditions: after 48 hours, particularly at 0.3 μM (FIG. 3)
Protocol: as §1
Healthy and I1061T fibroblasts were cultured as in Example 1. To evaluate the effect of Compound No. 10 on lysosomal size, cells were treated with either 300 μM beta-cyclodextrin (CD), 2.5 μM Rim, 0.3 μM Compound No. 10 (CB), 1 μM Compound No. 10, 3 μM Compound No. 10, or vehicle control (ctr) for 72 hours. Following treatment, cytofluorimetric assays using Lysotracker™ (Life Technology #L7528) fluorescence as a tool was used and performed according to the manufacturer's instructions. LysoTracker™ provides fluorescence detection for live-cell staining of acidic environments and can be used for labeling and tracing acidic organelles such as lysosomes. Stained and unstained cells were analyzed by Cytofluorimeter CytoFLEX (Beckman Coulter). Data provided are the ratio of geometric (geo) mean of LysoTracker™ levels in stained divided by unstained samples, collected at 24 hours (FIG. 3, left), 48 hours (FIG. 3, middle), and 72 hours (FIG. 3, right).

[1] = target: sigma 2/transmembrane protein 97 ("TMEM97") receptors (Homo sapiens, UniProt Q5BJF2); conditions: antagonist of the sigma receptor; known in the art; cited from earlier work
[2] = tested on: mouse model of Niemann-Pick Disease, Type C; conditions: WO 2014/022841; cited from earlier work

sigma 2/transmembrane protein 97 ("TMEM97") receptors, sequence (Q5BJF2 whole entry, species assumed): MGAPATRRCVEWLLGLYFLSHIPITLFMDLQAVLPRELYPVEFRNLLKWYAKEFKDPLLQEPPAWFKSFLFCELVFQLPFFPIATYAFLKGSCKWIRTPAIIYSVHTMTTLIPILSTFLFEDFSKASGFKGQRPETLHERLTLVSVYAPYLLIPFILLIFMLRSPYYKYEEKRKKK

CC1(C)CCN(C2CCCC2)Cc2cc(-c3ccc(C(F)(F)F)cc3)ccc21 [Compound No. 10, 2-cyclopentyl-5,5-dimethyl-8-(4-(trifluoromethyl)phenyl)-2,3,4,5-tetrahydro-1H-benzo[c]azepine]
effect on NPC1 protein expression (NPC1 protein): did not have a statistically significant effect | fluorescence of the lysosomes (Lysotracker geo mean ratio), representing lysosomal size (I1061T fibroblasts): increase

C[C@@H]1CN(CCCn2c3ccccc3c3ccccc32)C[C@H](C)N1 [Rimcazole, 9-[3-(3,5-cis-dimethylpiperazino)propyl]-carbazole]
IC50 [1]: 386 nM

OC[C@H]1O[C@@H]2O[C@H]3[C@H](O)[C@@H](O)[C@@H](O[C@H]4[C@H](O)[C@@H](O)[C@@H](O[C@H]5[C@H](O)[C@@H](O)[C@@H](O[C@H]6[C@H](O)[C@@H](O)[C@@H](O[C@H]7[C@H](O)[C@@H](O)[C@@H](O[C@H]8[C@H](O)[C@@H](O)[C@@H](O[C@H]1[C@H](O)[C@H]2O)O[C@@H]8CO)O[C@@H]7CO)O[C@@H]6CO)O[C@@H]5CO)O[C@@H]4CO)O[C@@H]3CO [beta-cyclodextrin]
cholesterol accumulation [2]: reduced | neuronal cell loss [2]: reduced

Reference: patent US20260232653A1, “USE OF CONDENSED AZACYCLE COMPOUNDS FOR THE TREATMENT OF LYSOSOMAL STORAGE DISORDERS” (Minerva Neurosciences, Inc., priority 2023, published 2026)
